In article PMC3702004, “Comparison of Intake and Systemic Relative Effect Potencies of Dioxin-like Compounds in Female Mice after a Single Oral Dose” (Environmental Health Perspectives, 2013):
Read-outs that look alike come from different tables or passages of the source.

Legend:
[1] = Compound analysis: liver, adipose and plasma concentrations 3 days after a single oral dose; assay type: in vivo, female C57BL/6 mice; conditions: for Liver:adipose ratio: based on ng/g tissue, day 3; for concentration at 3 days: female, C57BL/6, mouse, in vivo, po
Description: (§1) Animals. Eight-week-old female C57BL/6 mice (Harlan laboratories, Venray, the Netherlands) were randomly assigned to treatment groups (six animals per group) and allowed to acclimate for 1.5 weeks. The animals were housed in groups in standard cages and conditions (23 ± 2°C, 50–60% relative humidity, 12-hr dark/light cycle) with free access to food and water. Mice received a single dose of test compound by oral gavage at a dosing volume of 10 mL/kg body weight (BW). Mice treated with corn oil vehicle (10 mL/kg BW) served as controls. For each congener, five different doses were administered, ranging from 0.5–100 μg/kg BW (TCDD) to 5,000–500,000 µg/kg BW (PCB-153). Detailed information on doses is provided in Supplemental Material, Table S1 (http://dx.doi.org/10.1289/ehp.1206336). On day 3 after dosing, animals were euthanized by CO2/O2 asphyxiation, and blood was immediately collected from the abdominal aorta. The liver, thymus, spleen, and adipose tissue were removed, weighed (liver, thymus, and spleen), snap frozen, and stored at –80°C. All animal treatments were performed with permission of the Animal Ethical Committee (DEC Utrecht) and performed according to the [Law on Animal Experiments (1977)]. Animals were treated humanely and with regard for alleviation of suffering.
Compound analysis. Adipose and liver tissues samples were homogenized in Na2SO4, followed by extraction and clean-up in one step, and then eluted with 200 mL 1:1 hexane:dichloromethane on an open column packed with 40% wt/wt H2SO4-impregnated silica and KOH-silica. Blood plasma samples were extracted on an open column using Chem-Elut (Agilent Technologies, Santa Clara, CA, USA) and then NaCl eluted with 75 mL 3:2 hexane:2-propanol. Clean-up was performed using a miniaturized silica column (as described above), and samples were eluted using 30 mL hexane. Because the samples typically contained high levels of the analytes, only a small fraction was evaporated and analyzed. Prior to evaporation, we spiked a fraction of the samples with ^13C-labeled standards. We checked potential loss of analytes during extraction and clean-up by reextracting the samples using the identical protocol used for the samples. […] Tetradecane was added prior to evaporation. Sample analysis followed the U.S. Environmental Protection Agency Method 1613 ([U.S. Environmental Protection Agency 1994]) using single ion monitoring mode on an Agilent 6809N gas chromatograph (Agilent Technologies) coupled with a Micromass Ultima Autospec Ultra high-resolution mass spectrometer (HRMS; Waters Corp., Milford, MA, USA). Compounds were separated on a 60 m × 0.25 mm DB5-MS column ([…]; J&W Scientific, Folsom, CA, USA). The HRMS was operated with electron impact ionization with electron energy of 35 eV and an ion source temperature of 250°C. To reduce the number of analyses, samples were pooled before clean-up. […] This method was used because full congener–specific separation could be achieved on the high-resolution GC–HRMS. For lipid determination, samples were evaporated to dryness after the extraction step, and the amount of lipids was determined gravimetrically. Concentrations were calculated based on lipid weight and wet weight. The analysis of samples for the PCB-118 5,000 μg/kg BW dose failed during the procedure; thus analysis for this group could not be completed.
(§2) Plasma and PBL isolation. Blood from two mice was pooled (total volume of approximately 1.4 mL); plasma and PBLs were then isolated using Ficoll Paque gradient (GE Healthcare Europe, Diegem, Belgium). Plasma samples were stored at –80°C until compound analysis. Isolated lymphocytes were lysed with RLT buffer (QIAGEN, Venlo, the Netherlands) as described in the QIAGEN RNAeasy kit protocol and stored at –80°C until use.

[2] = toxic equivalency factor relative to TCDD; ref Van den Berg et al. 2006; cited from earlier work
Cyp1b1 mRNA in PBLs = test: Cyp1b1 gene expression in peripheral blood lymphocytes; assay type: in vivo, female C57BL/6 mice; conditions: for BMR20TCDD PBLs Cyp1b1 mRNA: 3 days after single oral dose; for REP PBLs Cyp1b1 mRNA: relative to TCDD
Description: as §1, §2
RNA isolation and quantitative real-time polymerase chain reaction (PCR). Total RNA was isolated from liver and PBLs using a QIAGEN RNeasy kit (QIAGEN). Purity and concentration of the isolated RNA was determined by measuring the absorbance ratio at 260/280 nm and 230/260 nm with a Nanodrop 2000 spectrophotometer (Thermo Scientific, Asheville, NC, USA). RNA was reverse transcribed to complementary DNA (cDNA) using the iScript cDNA synthesis Kit (Bio-Rad, Veenendaal, the Netherlands). Quantitative real-time PCR analyses were performed using the iQ Real-Time PCR Detection System with SYBR green (Bio-Rad). Amplification reactions were set up with […] containing 12.5 μL iQ SYBR Green Supermix (Bio-rad), 0.5 μL distilled H2O, 1 μL (10 μM) forward primer, 1 μL (10 μM) reverse primer, and 10 μL first strand cDNA (10X diluted). Primer sequences were as follows: Cyp1a1: forward-5´-GGTTAACCATGACCGGGAACT-3´ and reverse-5´-TGCCCAAACCAAAGAGAGTGA-3´ ([Schulz et al. 2012]); Cyp1a2: forward-5´-ACATTCCCAAGGAGCGCTGTATCT-3´ and reverse-5´-GTCGATGGCCGAGTTGTTATTGGT-3´ ([Flaveny et al. 2010]); Cyp1b1: forward-5´-GTGGCTGCTCATCCTCTTTACC-3´ and reverse-5´-CCCACAACCTGGTCCAACTC-3´ ([Berge et al. 2004]); β-actin: forward-5´-ATGCTCCCCGGGCTGTAT-3´ and reverse-5´-CATAGGAGTCCTTCTGACCCATTC-3´ ([Schulz et al. 2012]). All primers were run through the National Center for Biotechnology Information Primer-BLAST database (http://www.ncbi.nlm.nih.gov/tools/primer-blast/) to confirm specificity and validate for optimal annealing temperature (60°C for all primers) and efficiency. The efficiency of all primer pairs was 98–102% (tested at 60°C). The following program was used for denaturation and amplification of cDNA: 3 min at 95°C, followed by 40 cycles of 15 sec at 95°C and 45 sec at 60°C. Gene expression for each sample was expressed as threshold cycle (Ct), normalized to the reference gene β-actin (ΔCt). We calculated fold induction relative to the control group.
Data analysis. We obtained concentration–response curves using a sigmoidal dose–response nonlinear regression curve fit with variable slope (GraphPad Prism 6.01; GraphPad Software Inc., San Diego, CA, USA): […]

[3] = oral dose 0.5 µg/kg bw, 3 days after single oral dose
[4] = oral dose 2.5 µg/kg bw, 3 days after single oral dose
[5] = oral dose 10 µg/kg bw, 3 days after single oral dose
[6] = oral dose 25 µg/kg bw, 3 days after single oral dose
[7] = oral dose 100 µg/kg bw, 3 days after single oral dose

SMILES: Clc1cc2c(cc1Cl)Oc1cc(Cl)c(Cl)cc1O2 [TCDD, 2,3,7,8-tetrachlorodibenzodioxin, reference compound]
- liver:adipose ratio (hepatic sequestration criterion 0.3) ([1]; 3 days after single oral dose, Table 1 doses): > 0.3
- Liver:adipose ratio ([1]; dose 0.5 μg/kg BW): 1.8±0.2
- Liver:adipose ratio ([1]; dose 2.5 μg/kg BW): 2.9±0.5
- Liver:adipose ratio ([1]; dose 10 μg/kg BW): 4.2±0.7
- concentration at 3 days ([1]; 0.5 µg/kg bw, oral dose 0.5 µg/kg bw, 3 days after single oral dose, read-out: Adipose concentration): 1.8 ± 0.4 ng/g
- concentration at 3 days ([1]; 0.5 µg/kg bw, oral dose 0.5 µg/kg bw, 3 days after single oral dose, read-out: Liver concentration): 3.3 ± 0.6 ng/g
- concentration at 3 days ([1]; 2.5 µg/kg bw, oral dose 2.5 µg/kg bw, 3 days after single oral dose, read-out: Adipose concentration): 6.9 ± 1.5 ng/g
- concentration at 3 days ([1]; 2.5 µg/kg bw, oral dose 2.5 µg/kg bw, 3 days after single oral dose, read-out: Liver concentration): 20 ± 6 ng/g
- concentration at 3 days ([1]; 10 µg/kg bw, oral dose 10 µg/kg bw, 3 days after single oral dose, read-out: Adipose concentration): 21 ± 3 ng/g
- concentration at 3 days ([1]; 10 µg/kg bw, oral dose 10 µg/kg bw, 3 days after single oral dose, read-out: Liver concentration): 85 ± 13 ng/g
- concentration at 3 days ([1]; 10 µg/kg bw, oral dose 10 µg/kg bw, 3 days after single oral dose, read-out: Plasma concentration): 0.053 ng/g
- concentration at 3 days ([1]; 25 µg/kg bw, oral dose 25 µg/kg bw, 3 days after single oral dose, read-out: Plasma concentration): 0.108 ng/g
- concentration at 3 days ([1]; 100 µg/kg bw, oral dose 100 µg/kg bw, 3 days after single oral dose, read-out: Plasma concentration): 0.432 ng/g
- Adipose % dose / g tissue [1, 3]: 18 % dose / g tissue
- Adipose concentration [1, 3]: 2.1 ± 0.5 ng/g lipid
- Liver % dose / g tissue [1, 3]: 33 % dose / g tissue
- Liver concentration [1, 3]: 62 ± 12 ng/g lipid
- Plasma % dose / g tissue [1, 3]: 0.040 % dose / g tissue
- Adipose % dose / g tissue [1, 4]: 14 % dose / g tissue
- Adipose concentration [1, 4]: 7.6 ± 1.7 ng/g lipid
- Liver % dose / g tissue [1, 4]: 40 % dose / g tissue
- Liver concentration [1, 4]: 277 ± 83 ng/g lipid
- Plasma % dose / g tissue [1, 4]: 0.027 % dose / g tissue
- Adipose % dose / g tissue [1, 5]: 10 % dose / g tissue
- Adipose concentration [1, 5]: 24 ± 4 ng/g lipid
- Liver % dose / g tissue [1, 5]: 43 % dose / g tissue
- Liver concentration [1, 5]: 1152 ± 176 ng/g lipid
- Plasma % dose / g tissue [1, 5]: 0.027 % dose / g tissue
- Plasma concentration [1, 5]: 35 ± 6 ng/g lipid
- Plasma % dose / g tissue [1, 6]: 0.022 % dose / g tissue
- Plasma concentration [1, 6]: 60 ± 3 ng/g lipid
- Plasma % dose / g tissue [1, 7]: 0.022 % dose / g tissue
- Plasma concentration [1, 7]: 240 ± 30 ng/g lipid
- WHO-TEF [2]: 1
- BMR20TCDD PBLs Cyp1b1 mRNA (Cyp1b1 mRNA in PBLs; dose metric Adm dose): 20.9 µg/kg BW
- BMR20TCDD PBLs Cyp1b1 mRNA (Cyp1b1 mRNA in PBLs; dose metric Syst plasma): 53.5 ng/g lipid
- REP PBLs Cyp1b1 mRNA (Cyp1b1 mRNA in PBLs; dose metric Adm dose (µg/kg BW)): 1
- REP PBLs Cyp1b1 mRNA (Cyp1b1 mRNA in PBLs; dose metric Syst plasma (ng/g lipid)): 1
- Effect on Cyp1b1 mRNA in PBLs (Cyp1b1 mRNA in PBLs; single oral dose, day 3): dose-dependently induced
